# Data from patent US11952582B2, “Herbicide-resistance gene and application thereof in plant breeding” (priority 2017, dated 2024).
# Entries after “also recorded” stand apart in the source; their conditions may differ.
# Key:
# [1] = tested on: WT (William 82), OE GmHPPD and OE PaHPPD-SDM T1 soybean plants; experiment: Chlorophyll content and plant height of T1 generation soybean after whole plant spraying; type: in vivo; settings: 20 μM sprayed twice, 2 weeks
# Description: Wild type soybean William 82, T1 generation OE PaHPPD-SDM soybean and T1 generation OE GmHPPD soybean seedlings were sprayed with 20 μM mesotrione (prepared with 0.1% Tween-20) and 0.1% Tween-20 for twice, respectively. The interval between two sprays is 1 week. Two weeks after spray treatment, the total chlorophyll of the leaves was extracted and the content was determined by referring to the method of Lichtenthaler HK (1987). All experiments were repeated biologically 3 times, and the average value was taken.
# [2] = tested on: WT and T0 OE SDM rice leaves; experiment: Malondialdehyde content in rice leaves; type: in vivo; settings: 200 μM spray, 1 week
# Description: Malondialdehyde (MDA) is an important marker of the degree of oxide film damage. The previous method (Heath and Packer, 1968) for the determination of malondialdehyde content was referred with slight modifications. 1 g of rice leaves were accurately weighed and place to a pre-cooling mortar. 10 mL of pre-cooling 10% trichloroacetic acid (TCA, v/v) was added and grind thoroughly. Then the lapping solution was transfered to a 10 mL centrifuge tube and centrifuged at 4000 rpm for 10 min (4° C.). 2 mL of supernatant was pipetted and mixed with an equal volume of 0.6% 2-Thiobarbituric acid (TBA, v/v), and incubated at 100° C. for 15 min.
# Then the reaction solution was cooled at room temperature. The cooled reaction solution was centrifuged at 4000 rpm for 10 min (4° C.). The supernatant was taken and measured absorbance at wavelengths of 450 nm, 532 nm and 600 nm using ultraviolet spectrophotometers, respectively. Each sample was repeated 3 times. The unit of MDA content is nmol g^−1 FW.
# [3] = target: PaHPPD-SDM (Pseudomonas aeruginosa, UniProt Q9I576, A156V/E349K/R282S); settings: higher doses in the range 0-60 of herbicide
# PaHPPD-SDM, sequence (Q9I576 whole entry A156V/R282S/E349K): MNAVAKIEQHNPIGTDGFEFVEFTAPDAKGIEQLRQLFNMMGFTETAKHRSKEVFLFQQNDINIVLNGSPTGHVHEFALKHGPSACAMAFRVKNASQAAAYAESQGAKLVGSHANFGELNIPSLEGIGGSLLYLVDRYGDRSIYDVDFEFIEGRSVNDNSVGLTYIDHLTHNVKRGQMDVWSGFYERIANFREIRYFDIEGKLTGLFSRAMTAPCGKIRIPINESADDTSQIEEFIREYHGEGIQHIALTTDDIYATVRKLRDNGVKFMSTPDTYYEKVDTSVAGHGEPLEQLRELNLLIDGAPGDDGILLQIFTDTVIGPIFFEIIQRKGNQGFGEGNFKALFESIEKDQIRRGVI
# Description: Specifically, the presence of tyrosine aminotransferase in E. coli DH5a can catalyze the production of p-hydroxyphenylpyruvate (4-HPP) from tyrosine, which is used as a substrate for HPPD to produce homogentisic acid (HGA). After further oxidation and polymerization, a brown substance is produced. The addition of HPPD inhibitors will inhibit this reaction, thereby reducing the production of pigment. Therefore, the gradation of pigment can be used as an inhibition index of HPPD activity. […] Through heterologous expression of HPPD mutant genes from different species in E. coli DH5α, the resistance characteristics of E. coli DH5α-mutated gene to triketone herbicides were analyzed by detecting the absorption value of pigment at 405 nm (FIGS. 2-6, 8 and 9).
# The PaHPPD mutants obtained by random mutation was cloned into E. coli cells together with wild-type PaHPPD and AtHPPD for comparation and screening.
# The bacteria solution shaking cultured overnight at 37° C. was centrifuged, and 200 μL of supernatant was transferred to a sterile 96-well plate (microplate with high throughput characteristics) using a 200 μL pipette on an ultra-clean workbench. The pigment content was measured with a microtiter plate reader at a wavelength of 405 nm (OD405 nm), and the HPPD activity was evaluated according to the size of the OD value.
# Then the obtained PaHPPD-SDM mutant was compared with its parental mutants (PaHPPD-M3, PaHPPD-DS18, and PaHPPD-DS73) to understand their ability of brown pigmentation in the presence of triketone herbicides at different doses (0-60 μM). The calculation formula of HPPD activity (%) is as follows: HPPD activity(%)=(Am/Ac)×100
# Wherein Am refers to the average value of the absorbance at a specific herbicide dose, and Ac refers to the average value of the absorbance without the herbicide.
smiles,measurement,setting,value
CS(=O)(=O)c1ccc(C(=O)C2C(=O)CCCC2=O)c([N+](=O)[O-])c1 [mesotrione],contents of chlorophyll a and chlorophyll b (and plant height) of treated OE PaHPPD-SDM compared with treated OE GmHPPD and wild type,[1],significant higher
same,order of plant height of treated lines,[1],OE PaHPPD-SDM>OE GmHPPD>wild-type soybean William 82
same,contents of chlorophyll a and chlorophyll b in leaves (and plant height) compared with control treatment,[1]; OE GmHPPD and wild-type William 82,significantly lower
same,contents of chlorophyll a and chlorophyll b in leaves (and plant height) compared with control,[1]; OE PaHPPD-SDM,reduced; also recorded: slightly reduced
same,plant height of treated soybean compared with control,[1]; all lines,lower
same,MDA content in WT rice leaves compared with OE SDM rice leaves,[2],significantly higher
same,"resistance by HPPD activity (%) compared with WT, PaHPPD-M3, PaHPPD-DS18 and PaHPPD-DS73",[3],improved the resistance
